Earlier results as cited in US20090202672A1, “AQUACULTURE FEED, PRODUCTS, AND METHODS COMPRISING BENEFICIAL FATTY ACIDS” (Monsanto Company, priority 2008, published 2009).

Columns and labels:
[1] = tested on: established cell line from Atlantic salmon, Salmo salar; settings: Ghioni et al 2004
[2] = tested on: cell line from turbot, Scopthalmus maximus; settings: Ghioni et al 1999

Bioconversion of SDA to EPA and DHA [1]: bioconversion of SDA to EPA, but not DHA
Conversion of SDA to EPA [2]: limited conversion of SDA to EPA
Structure (SMILES): CC/C=C\C/C=C\C/C=C\C/C=C\CCCCC(=O)O [SDA, stearidonic acid]
